“Also recorded” adds a separate entry of the source.
Experiments:
[1] = system: multidrug resistant P. yoelii; set-up: method as in printed; conditions: multidrug resistant P. yoelii in mice; background, ref not given; cited from earlier work
[2] = system: chloroquine sensitive P. berghei; set-up: method as in printed; conditions: chloroquine sensitive P. berghei in mice; background, ref not given; cited from earlier work
[3] = system: chloroquine resistant P. falciparum; set-up: method as in printed; conditions: chloroquine resistant P. falciparum in vitro; background, ref not given; cited from earlier work
healthy human volunteers = assay: Single ascending dose, placebo-controlled phase I study: adverse events, tolerability, MTD; assay type: in vivo; conditions: for Severity grade: CTCAE v4.0
Procedure: This was a single ascending dose, placebo-controlled, randomized, double blind trial. Randomization was carried out by computer generated random number sequence. Randomization was carried out for the drug and the placebo in a 3 : 1 ratio for each dose level. The drugs were dispensed in sealed bottles with the randomization code written on them. Randomization codes were provided in sealed opaque envelopes with the protocol specification that the codes may be opened by the investigator only in case of a serious or severe adverse event.
This was used to obtain a dose of 96 mg for a 60 kg person. […] The following dose levels were evaluated: 80, 160, 320, 400, 500, 600, and 700 mg. The starting dose was calculated by allometric scaling from animals. At each dose level, six volunteers received CDRI 97/78 and two received placebo except at 700 mg where only two volunteers were given this dose. At each dose level, volunteers were assessed before proceeding to the next dose.
The decision to stop the dose escalation was based on the appearance of the dose limiting toxicity (DLT) which was defined as the dose at which any of the following appeared: severe nausea, vomiting, heartburn, headache, remarkable change in vital parameters such as blood pressure, heart rate, respiratory rate or oxygen saturation of blood, changes in QT interval, or any event that in the opinion of the investigators required stopping of the trial.
In case this was not achieved, it was planned not to dose volunteers beyond 700 mg.
The volunteers after giving informed consent were screened. The screening process was done latest within 1 month of admission for dosing. The volunteers who fulfilled the inclusion/exclusion criteria were admitted in the CPU the night before drug administration. Standardized dinner was served at 9 pm the night prior to dosing. On day 0, baseline blood sample for biochemical and haematological examination and stool and urine samples for routine and microscopy were taken. They received the study drug, according to the randomization sequence, under supervision. The empty packaging was returned to the container. The volunteers received drug as per randomization. Breakfast was given half an hour after drug administration. Subsequently, standardized lunch and dinner were served to the volunteers.
The subjects were attached to a cardiac monitor and vital HR, BP, ECG, oxygen saturation, and RR were recorded. Corrected QT interval using Fridericia's formula was calculated. […] Unscheduled monitoring was undertaken whenever it felt necessary. […] At the end of the 7th day, they were said to have completed the study. […] The study was monitored by a Data Safety Monitoring Board.

rats = system: rats; set-up: method as in printed; conditions: preclinical, used for starting dose, ref not given; cited from earlier work
[4] = AE Heaviness of head, 80 mg group
[5] = AE Visual disturbances, 320 mg group
[6] = single oral dose 80-700 mg, healthy male volunteers
[7] = volunteers given 500 mg, 600 mg (and placebo)

For `C=C(c1ccc(OC(C)(C)COC(=O)CCC(=O)O)cc1)C1COC2(OO1)C1CC3CC(C1)CC2C3` (stereo not shown) [CDRI 97/78, Mono[2methyl2[3(1spiro[tricycle[3.3.1.13,7]decane2,3′-[1,2,4]trioxan] 6′-ylethenyl)phenoxy]propyl] ester], the Antimalarial activity [1] is given as “powerful antimalarial activity”, the Antimalarial activity [2] is given as “powerful antimalarial activity” and the Antimalarial activity [3] is given as “powerful antimalarial activity”. For the same molecule, the No. of events (healthy human volunteers; 80 mg, Heaviness of head) was 1, the “Type of adverse events” value (healthy human volunteers; 160 mg) was “None” and the No. of events (healthy human volunteers; 320 mg, Visual disturbance) was 1. For the same molecule, the No. of events (healthy human volunteers; 400 mg, Bradycardia) was 1, the No. of events (healthy human volunteers; 400 mg, Drowsiness) was 1 and the No. of events (healthy human volunteers; 400 mg, Itching) was 1. The No. of events (healthy human volunteers; 500 mg, Nausea) was 1, the No. of events (healthy human volunteers; 500 mg, Sedation) was 1 and the No. of events (healthy human volunteers; 600 and 700 mg, Sedation) was 1. The Causality assessment (healthy human volunteers; AE Bradycardia, 400 mg group) was “Possible (possible (>5% but ≤50% chance of being drug related)”, the “Duration of AE” value (healthy human volunteers; AE Bradycardia, 400 mg group) was 60 min and the “Reversal complete (yes or no)” value (healthy human volunteers; AE Bradycardia, 400 mg group) was “Yes”. For the same molecule, the “Spontaneous reversal (yes or no)” value (healthy human volunteers; AE Bradycardia, 400 mg group) was “Yes”, the “Time (hrs) of onset after drug administration” value (“Time (hrs) of onset” below) (healthy human volunteers; AE Bradycardia, 400 mg group) was 1 h and the Treatment given (healthy human volunteers; AE Bradycardia, 400 mg group) was “None”. For the same molecule, the Severity grade (healthy human volunteers; AE Bradycardia, 400 mg group) was 1, the Causality assessment (healthy human volunteers; AE Drowsiness, 400 mg group) was “Possible (possible (>5% but ≤50% chance of being drug related)” and the “Duration of AE” value (healthy human volunteers; AE Drowsiness, 400 mg group) was 60 min. For the same molecule, the “Reversal complete (yes or no)” value (healthy human volunteers; AE Drowsiness, 400 mg group) was “Yes”, the “Spontaneous reversal (yes or no)” value (healthy human volunteers; AE Drowsiness, 400 mg group) was “Yes” and the “Time (hrs) of onset” value (healthy human volunteers; AE Drowsiness, 400 mg group) was 2 h. The Treatment given (healthy human volunteers; AE Drowsiness, 400 mg group) was “None”, the Severity grade (healthy human volunteers; AE Drowsiness, 400 mg group) was 1 and the Causality assessment (healthy human volunteers; [4]) was “Possible (possible (>5% but ≤50% chance of being drug related)”. For the same molecule, the “Duration of AE” value (healthy human volunteers; [4]) was 15 min, the “Reversal complete (yes or no)” value (healthy human volunteers; [4]) was “Yes” and the “Spontaneous reversal (yes or no)” value (healthy human volunteers; [4]) was “Yes”. For the same molecule, the “Time (hrs) of onset” value (healthy human volunteers; [4]) was 0.25 h, the Treatment given (healthy human volunteers; [4]) was “None” and the Severity grade (healthy human volunteers; [4]) was 1. For the same molecule, the Causality assessment (healthy human volunteers; AE Itching, 400 mg group) was “Possible (possible (>5% but ≤50% chance of being drug related)”, the “Duration of AE” value (healthy human volunteers; AE Itching, 400 mg group) was 8 min and the “Reversal complete (yes or no)” value (healthy human volunteers; AE Itching, 400 mg group) was “Yes”. The “Spontaneous reversal (yes or no)” value (healthy human volunteers; AE Itching, 400 mg group) was “Yes”, the “Time (hrs) of onset” value (healthy human volunteers; AE Itching, 400 mg group) was 24 h and the Treatment given (healthy human volunteers; AE Itching, 400 mg group) was “None”. For the same molecule, the Severity grade (healthy human volunteers; AE Itching, 400 mg group) was 1, the Causality assessment (healthy human volunteers; AE Nausea, 500 mg group) was “Possible (possible (>5% but ≤50% chance of being drug related)” and the “Duration of AE” value (healthy human volunteers; AE Nausea, 500 mg group) was 20 min. For the same molecule, the “Reversal complete (yes or no)” value (healthy human volunteers; AE Nausea, 500 mg group) was “Yes”, the “Spontaneous reversal (yes or no)” value (healthy human volunteers; AE Nausea, 500 mg group) was “Yes” and the “Time (hrs) of onset” value (healthy human volunteers; AE Nausea, 500 mg group) was 0.25 h. The Treatment given (healthy human volunteers; AE Nausea, 500 mg group) was “None”, the Severity grade (healthy human volunteers; AE Nausea, 500 mg group) was 1 and the Causality assessment (healthy human volunteers; AE Sedation, 500 mg group) was “Possible (possible (>5% but ≤50% chance of being drug related)”. For the same molecule, the “Duration of AE” value (healthy human volunteers; AE Sedation, 500 mg group) was 120 min, the “Reversal complete (yes or no)” value (healthy human volunteers; AE Sedation, 500 mg group) was “Yes” and the “Spontaneous reversal (yes or no)” value (healthy human volunteers; AE Sedation, 500 mg group) was “Yes”. The “Time (hrs) of onset” value (healthy human volunteers; AE Sedation, 500 mg group) was 2 h, the Treatment given (healthy human volunteers; AE Sedation, 500 mg group) was “None” and the Severity grade (healthy human volunteers; AE Sedation, 500 mg group) was 1-2. The Causality assessment (healthy human volunteers; AE Sedation, 600 mg group) was “Possible (possible (>5% but ≤50% chance of being drug related)”, the “Duration of AE” value (healthy human volunteers; AE Sedation, 600 mg group) was 60 min and the “Reversal complete (yes or no)” value (healthy human volunteers; AE Sedation, 600 mg group) was “Yes”. For the same molecule, the “Spontaneous reversal (yes or no)” value (healthy human volunteers; AE Sedation, 600 mg group) was “Yes”, the “Time (hrs) of onset” value (healthy human volunteers; AE Sedation, 600 mg group) was 2 h and the Treatment given (healthy human volunteers; AE Sedation, 600 mg group) was “None”. The Severity grade (healthy human volunteers; AE Sedation, 600 mg group) was 1-2, the Causality assessment (healthy human volunteers; [5]) was “Remote (remote (<5% chance of being drug related))” and the “Duration of AE” value (healthy human volunteers; [5]) was 2 to 3 min. For the same molecule, the “Reversal complete (yes or no)” value (healthy human volunteers; [5]) was “Yes”, the “Spontaneous reversal (yes or no)” value (healthy human volunteers; [5]) was “Yes” and the “Time (hrs) of onset” value (healthy human volunteers; [5]) was 36 h. For the same molecule, the Treatment given (healthy human volunteers; [5]) was “None”, the Severity grade (healthy human volunteers; [5]) was 1 and the “Heart rate during adverse event bradycardia” value (healthy human volunteers; adverse event bradycardia) was 56-57 bpm. The “Incidence of adverse events, drug vs placebo groups” value (healthy human volunteers; all dose levels, P = 0.43) was “no significant difference”, the Serious adverse events (healthy human volunteers; single oral dose 80-700 mg) was “No serious adverse events were reported” and the “MTD (maximum tolerated dose)” value (healthy human volunteers; [6]) was “not reached; also recorded: could not be determined”. The Tolerability / safety (healthy human volunteers; [6]) was “well tolerated; also recorded: safe and tolerable”, the “Sedation: duration” value (healthy human volunteers; [7]) was 1 to 2 h and the “Sedation: time of onset after drug administration” value (healthy human volunteers; [7]) was “about 2 hours”. For the same molecule, the Maximum tolerated dose (rats) was 100 mg/kg.

From PMC3985299, “Single Ascending Dose Safety and Pharmacokinetics of CDRI-97/78: First-in-Human Study of a Novel Antimalarial Drug” (Malaria Research and Treatment, 2014)
